Results reported in paper PMC6934184, “Selective DNA-PKcs inhibition extends the therapeutic index of localized radiotherapy and chemotherapy” (The Journal of Clinical Investigation, 2019).

Target: T1, CSNK1G1 (CK1 gamma 1) (Homo sapiens, UniProt Q9HCP0)
T1 construct: purchased Thermo Fisher Scientific (Life Technologies) SelectScreen
Assay: SelectScreen Z'LYTE
Format: biochemical
Procedure, shortened: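 SelectScreen broad panel; activity (Z'LYTE, Adapta) plus binding formats. ATP: Km app for CSF1R Z'LYTE; 10 for CAMK1 Adapta. Readout = % per kinase.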

T1 sequence (Q9HCP0 whole entry): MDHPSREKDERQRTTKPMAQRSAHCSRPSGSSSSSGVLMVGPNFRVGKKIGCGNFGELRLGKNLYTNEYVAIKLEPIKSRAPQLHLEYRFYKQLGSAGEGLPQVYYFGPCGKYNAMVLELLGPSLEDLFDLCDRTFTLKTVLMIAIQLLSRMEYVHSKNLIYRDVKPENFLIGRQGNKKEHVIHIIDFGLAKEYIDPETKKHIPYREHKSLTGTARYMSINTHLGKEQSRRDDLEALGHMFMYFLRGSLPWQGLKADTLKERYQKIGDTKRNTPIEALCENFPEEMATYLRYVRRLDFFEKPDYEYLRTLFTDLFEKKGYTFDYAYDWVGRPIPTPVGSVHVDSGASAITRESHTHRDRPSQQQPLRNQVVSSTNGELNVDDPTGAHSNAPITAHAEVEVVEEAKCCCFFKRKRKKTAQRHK

## CN(C(=O)CN1CCOCC1)c1ccc2sc3c(-c4cccc5c(=O)cc(N6CC7CCC(C6)O7)oc45)cccc3c2c1 [NU5455]
  inhibition at 1 µM: -9.9%
